These results are taken from patent US6670183B2, “88kDa tumorigenic growth factor and antagonists” (A & G Pharmaceutical, Inc., priority 1997, dated 2003).

The subject of test [1] is GP88 mRNA. Kind of test: regulation of GP88 mRNA expression in MDA MB-453 cells. It is filed as cell-based, human.
The test system of test [2] is GP88. As to the kind of experiment: regulation of GP88 expression in 1246, 1246-3A and PC cells, Northern and Western blot. It is filed as cell-based, mouse. Particulars: 1246 cells. How it is done:
Fifteen or twenty micrograms of total RNA per sample were subjected to electrophoresis on a denaturing 1.2% agarose gel containing 0.22 M formaldehyde in 1×MOPS (10×MOPS: 0.2 M MOPS, 50 mM NaOAc 10 mM EDTA). RNA was blotted on nitrocellulose membrane (MSI Inc., Westboro, Mass.) by overnight capillary transfer in 10×SSC (20×SSC=3 M NaCl, 0.3 M Na Citrate pH 7.0). […] Results were quantitated by densitometric scanning. Ribosomal protein L32 mRNA was detected as internal standard for normalizing RNA loading.
Amounts of cell lysate and culture medium to be analyzed were normalized by cell number of 18×10^5 and 3×10^5 respectively. […] Proteins were electro transferred to immobilon membranes and GP88 detected using anti K19T antibody conjugated to horseradish peroxidase and detected by enhanced chemiluminescence (ECL).
GP88 expression was examined in 1246 cells in different culture conditions such as defined medium and serum containing medium. It was shown that the level of expression of GP88 mRNA (measured by Northern blot analysis) and protein (measured by Western blot analysis) in 1246 and in 1246-3A cells is inhibited when the cells are treated with 2% fetal bovine serum indicating the presence of circulating inhibitors of GP88 expression in fetal bovine serum (FIG. 1C). […]
For orientation: In western blotting, separated proteins are transferred to a membrane and probed.

Regarding insulin: hormone, in test [1], the “GP88 mRNA expression” value is recorded as “stimulated”.
Consider EGF: epidermal growth factor, for which the “GP88 mRNA expression” value in test [2] is reported as “stimulated”.
